System: human ventricular trabeculae
Test: Action potential recording and pro-arrhythmic score analysis in human ventricular trabeculae (hVT);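 note: sharp microelectrode action potential recordings at 37°C in Tyrode-perfused trabeculae, 4 cumulative concentrations each applied 31 min, values averaged over last 30 APs, vehicle 0.1% DMSO as control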
Conditions: for EADs (raw data) / Refractoriness Escape (raw data) / Beat Escape (raw data): n=4 trabeculae
[1] = 2Hz, 0.7-FOLD free ETPC (4.1µM)

Protocol: Briefly, the human heart was transferred into a dissection vessel containing a cold (4°C), fresh proprietary dissection solution. The heart was maintained completely submerged in dissection solution. Ventricular trabeculae were dissected and transferred to the recording chamber.
Briefly, a single tissue was mounted into the experimental chamber filled with oxygenated Tyrode's external solution. The temperature of the solution was maintained at 37°C with flow rate at 5 mL per minute. The tissue was allowed to equilibrate for 30–60 min with stimulation (3 V, 3 ms) at a frequency of 1.0 Hz. High impedance borosilicate microelectrodes were prepared with a tip resistance of 10–20 MΩ once filled with 3 M KCl. Upon tissue impalement, the membrane potential was allowed to stabilize (typically, around −85 mV). Tissues with resting membrane potentials more positive than −75 mV were rejected. Bipolar stimulation at 1.5x threshold was applied and recordings were performed in continuous mode with sampling at 20 kHz using ADInstruments and LabChart Software.
Interruption of perfusion/oxygenation; (2). Absence of Aps following stimulation at baseline; (3). Time frame of drug exposure not respected; (4). Unstable response to stimulation at baseline; (5). Resting membrane potential (RMP) > −75 mV; 7). Maximal amplitude of AP (AMAX) <70 mV; 8). AP duration at 90% repolarization (APD90) <200 ms or >450 ms.
Experimental Procedure: Each test article was evaluated at 4 concentrations in 4 ventricular trabeculae derived from a minimum of 2 donor hearts. Testing concentrations were chosen based upon human free ETPC, aiming to cover 1–100-fold of human free ETPC. […] Briefly, following stabilization of each tissue, APs were collected and assessed for 31 min in vehicle control solution (Tyrode with 0.1% DMSO) at stimulation frequencies of 1 Hz for 25 min, 2 Hz for 3 min and then 1 Hz for 3 min. Following this vehicle control period, 4 concentrations of a test compound were applied sequentially and cumulatively. Each concentration was applied for 31 min with the same stimulation sequence as in vehicle controls.
For each frequency tested, the last 30 APs acquired at the end of the period were averaged for vehicle controls and for each test article concentration. Analysis at 1 Hz included only the last 30 APs of the initial 25-min incubation period. The following AP parameters and pro-arrhythmia variables were analyzed offline upon the completion of recordings:
• RMP (mV) • AMAX (mV) • AP duration at percent repolarization (APD20, APD30, APD50, APD60, APD90) (ms) • Short term variability analysis of AP duration (STV): Beat-to-beat variability of repolarization was quantified as STV from APD90 Poincare plots over a period of 30 sec.
Compound effects were quantified relative to the data collected during the vehicle control period (see Figure 1). […] Additionally, based on AnaBios historical data, threshold values for changes over baseline control for AP instability, APD alternans, Maximum APD dispersion and ERP (APD) were based upon an effect level of 10%. When applicable, differences were tested for statistical significance using the unpaired Student's t-test. A value of P < 0.05 was considered significant.
AP parameters and pro-arrhythmia variables were combined into a meaningful, single score to assess the pro-arrhythmic risk of a compound at each concentration tested. The pro-arrhythmic potential of compounds at 1 or 2 Hz was determined by assigning a weighted scale to each variable (Table 1).

Cc1cccc(C)c1OCC(C)N (stereo not shown) [MEXILETINE, Mexiletine]
EADs (raw data) (1Hz, 73-FOLD free ETPC (4.1µM)): 0
Refractoriness Escape (raw data) (1Hz, 73-FOLD free ETPC (4.1µM)): 0
AMAX (average raw data) [1]: 105
AMAX percentage change compared to vehicle control [1]: -2%
APD30 (average raw data) [1]: 126
APD30 percentage change compared to vehicle control [1]: -7%
APD50 (average raw data) [1]: 172
APD50 percentage change compared to vehicle control [1]: -4%
APD90 (average raw data) [1]: 257
APD90 percentage change compared to vehicle control [1]: -1%
Alternans (average raw data) [1]: 2.02
Alternans percentage change compared to vehicle control [1]: 59%
Beat Escape percentage change compared to vehicle control [1]: 50%
EADs percentage change compared to vehicle control [1]: 0%
ERP (average raw data) [1]: 0.45
ERP percentage change compared to vehicle control [1]: 5%
Max Dispersion (average raw data) [1]: 6.13
Max Dispersion percentage change compared to vehicle control [1]: -14%
RMP (average raw data) [1]: -88
RMP percentage change compared to vehicle control [1]: 0%
Refractoriness Escape percentage change compared to vehicle control [1]: 0%
STV (average raw data) [1]: 1.38
STV percentage change compared to vehicle control [1]: 81%
Triangulation (average raw data) [1]: 131
Triangulation percentage change compared to vehicle control [1]: 5%
Beat Escape (raw data) [1]: 2
EADs (raw data) [1]: 0
Refractoriness Escape (raw data) [1]: 0
AMAX (average raw data) (2Hz, 7-FOLD free ETPC (4.1µM)): 99
AMAX percentage change compared to vehicle control (2Hz, 7-FOLD free ETPC (4.1µM)): -8%
APD30 (average raw data) (2Hz, 7-FOLD free ETPC (4.1µM)): 128
APD30 percentage change compared to vehicle control (2Hz, 7-FOLD free ETPC (4.1µM)): -6%
APD50 (average raw data) (2Hz, 7-FOLD free ETPC (4.1µM)): 167
APD50 percentage change compared to vehicle control (2Hz, 7-FOLD free ETPC (4.1µM)): -8%
APD90 (average raw data) (2Hz, 7-FOLD free ETPC (4.1µM)): 255
APD90 percentage change compared to vehicle control (2Hz, 7-FOLD free ETPC (4.1µM)): -2%
Alternans (average raw data) (2Hz, 7-FOLD free ETPC (4.1µM)): 1.03
Alternans percentage change compared to vehicle control (2Hz, 7-FOLD free ETPC (4.1µM)): -19%
Beat Escape percentage change compared to vehicle control (2Hz, 7-FOLD free ETPC (4.1µM)): 75%
EADs percentage change compared to vehicle control (2Hz, 7-FOLD free ETPC (4.1µM)): 0%
ERP (average raw data) (2Hz, 7-FOLD free ETPC (4.1µM)): 0.39
ERP percentage change compared to vehicle control (2Hz, 7-FOLD free ETPC (4.1µM)): -9%
Max Dispersion (average raw data) (2Hz, 7-FOLD free ETPC (4.1µM)): 4.70
Max Dispersion percentage change compared to vehicle control (2Hz, 7-FOLD free ETPC (4.1µM)): -34%
RMP (average raw data) (2Hz, 7-FOLD free ETPC (4.1µM)): -89
RMP percentage change compared to vehicle control (2Hz, 7-FOLD free ETPC (4.1µM)): 1%
Refractoriness Escape percentage change compared to vehicle control (2Hz, 7-FOLD free ETPC (4.1µM)): 0%
STV (average raw data) (2Hz, 7-FOLD free ETPC (4.1µM)): 0.76
STV percentage change compared to vehicle control (2Hz, 7-FOLD free ETPC (4.1µM)): 3%
Triangulation (average raw data) (2Hz, 7-FOLD free ETPC (4.1µM)): 127
Triangulation percentage change compared to vehicle control (2Hz, 7-FOLD free ETPC (4.1µM)): 2%
Beat Escape (raw data) (2Hz, 7-FOLD free ETPC (4.1µM)): 3
EADs (raw data) (2Hz, 7-FOLD free ETPC (4.1µM)): 0
Refractoriness Escape (raw data) (2Hz, 7-FOLD free ETPC (4.1µM)): 0
AMAX (average raw data) (2Hz, 24-FOLD free ETPC (4.1µM)): 90
AMAX percentage change compared to vehicle control (2Hz, 24-FOLD free ETPC (4.1µM)): -16%
APD30 (average raw data) (2Hz, 24-FOLD free ETPC (4.1µM)): 129
APD30 percentage change compared to vehicle control (2Hz, 24-FOLD free ETPC (4.1µM)): -4%
APD50 (average raw data) (2Hz, 24-FOLD free ETPC (4.1µM)): 169
APD50 percentage change compared to vehicle control (2Hz, 24-FOLD free ETPC (4.1µM)): -7%
APD90 (average raw data) (2Hz, 24-FOLD free ETPC (4.1µM)): 269
APD90 percentage change compared to vehicle control (2Hz, 24-FOLD free ETPC (4.1µM)): 3%
Alternans (average raw data) (2Hz, 24-FOLD free ETPC (4.1µM)): 30.91
Alternans percentage change compared to vehicle control (2Hz, 24-FOLD free ETPC (4.1µM)): 2347%
EADs percentage change compared to vehicle control (2Hz, 24-FOLD free ETPC (4.1µM)): 0%
ERP (average raw data) (2Hz, 24-FOLD free ETPC (4.1µM)): 0.37
ERP percentage change compared to vehicle control (2Hz, 24-FOLD free ETPC (4.1µM)): -13%
Max Dispersion (average raw data) (2Hz, 24-FOLD free ETPC (4.1µM)): 59.90
Max Dispersion percentage change compared to vehicle control (2Hz, 24-FOLD free ETPC (4.1µM)): 741%
RMP (average raw data) (2Hz, 24-FOLD free ETPC (4.1µM)): -88
RMP percentage change compared to vehicle control (2Hz, 24-FOLD free ETPC (4.1µM)): 0%
Refractoriness Escape percentage change compared to vehicle control (2Hz, 24-FOLD free ETPC (4.1µM)): 0%
STV (average raw data) (2Hz, 24-FOLD free ETPC (4.1µM)): 21.80
STV percentage change compared to vehicle control (2Hz, 24-FOLD free ETPC (4.1µM)): 2766%
Triangulation (average raw data) (2Hz, 24-FOLD free ETPC (4.1µM)): 139
Triangulation percentage change compared to vehicle control (2Hz, 24-FOLD free ETPC (4.1µM)): 11%
Beat Escape (raw data) (2Hz, 24-FOLD free ETPC (4.1µM)): 4
EADs (raw data) (2Hz, 24-FOLD free ETPC (4.1µM)): 0
Refractoriness Escape (raw data) (2Hz, 24-FOLD free ETPC (4.1µM)): 0
AMAX (average raw data) (2Hz, 73-FOLD free ETPC (4.1µM)): 43
AMAX percentage change compared to vehicle control (2Hz, 73-FOLD free ETPC (4.1µM)): -60%
APD30 (average raw data) (2Hz, 73-FOLD free ETPC (4.1µM)): 82
APD30 percentage change compared to vehicle control (2Hz, 73-FOLD free ETPC (4.1µM)): -30%
APD50 (average raw data) (2Hz, 73-FOLD free ETPC (4.1µM)): 118
APD50 percentage change compared to vehicle control (2Hz, 73-FOLD free ETPC (4.1µM)): -30%
APD90 (average raw data) (2Hz, 73-FOLD free ETPC (4.1µM)): 234
APD90 percentage change compared to vehicle control (2Hz, 73-FOLD free ETPC (4.1µM)): -3%
Alternans (average raw data) (2Hz, 73-FOLD free ETPC (4.1µM)): 21.46
Alternans percentage change compared to vehicle control (2Hz, 73-FOLD free ETPC (4.1µM)): 1598%
EADs percentage change compared to vehicle control (2Hz, 73-FOLD free ETPC (4.1µM)): 0%
ERP (average raw data) (2Hz, 73-FOLD free ETPC (4.1µM)): 0.45
ERP percentage change compared to vehicle control (2Hz, 73-FOLD free ETPC (4.1µM)): 5%
Max Dispersion (average raw data) (2Hz, 73-FOLD free ETPC (4.1µM)): 35.75
Max Dispersion percentage change compared to vehicle control (2Hz, 73-FOLD free ETPC (4.1µM)): 402%
RMP (average raw data) (2Hz, 73-FOLD free ETPC (4.1µM)): -68
RMP percentage change compared to vehicle control (2Hz, 73-FOLD free ETPC (4.1µM)): -19%
Refractoriness Escape percentage change compared to vehicle control (2Hz, 73-FOLD free ETPC (4.1µM)): 0%
STV (average raw data) (2Hz, 73-FOLD free ETPC (4.1µM)): 15.46
Triangulation (average raw data) (2Hz, 73-FOLD free ETPC (4.1µM)): 152
Triangulation percentage change compared to vehicle control (2Hz, 73-FOLD free ETPC (4.1µM)): 25%
Beat Escape (raw data) (2Hz, 73-FOLD free ETPC (4.1µM)): 2
EADs (raw data) (2Hz, 73-FOLD free ETPC (4.1µM)): 0
Refractoriness Escape (raw data) (2Hz, 73-FOLD free ETPC (4.1µM)): 0

Source: PMC5760531, “Action Potential Recording and Pro-arrhythmia Risk Analysis in Human Ventricular Trabeculae” (Frontiers in Physiology, 2018)
